Values of other authors in US20040043073A1, “Pharmaceutical compositions for drugs having pH-dependent solubility” (priority 2002, published 2004).
Read-outs that look alike come from different tables or passages of the source.

For `CC[C@H]1OC(=O)[C@H](C)[C@@H](O[C@H]2C[C@@](C)(OC)[C@@H](O)[C@H](C)O2)[C@H](C)[C@@H](O[C@@H]2O[C@H](C)C[C@H](N(C)C)[C@H]2O)[C@](C)(OC)C[C@@H](C)C(=O)[C@H](C)[C@@H](O)[C@]1(C)O` [clarithromycin, 6-O-methylerythromycin A], the solubility (in the stomach (pH 1.2)) is listed as “very soluble”, the solubility (lower small intestine (pH 6 to 8)) is listed as “solubility decreases” and the solubility (upper region of the small intestine (pH 5.0)) is listed as “fairly soluble”.
